Test results published in patent publication US8946273B2, “S-Triazolyl alpha-mercapto acetanilides as inhibitors of HIV reverse transcriptase” (priority 2011, dated 2015).
Like-named read-outs stand apart in the source and are kept apart here.

Legend:
[1] = system: wild type HIV-1; test: microbe, parasite or virus in culture; assay type: cell-based, human immunodeficiency virus type 1 (HIV-1)
[2] = target: T1, wild-type HIV reverse transcriptase (Human immunodeficiency virus type 1 group M subtype B, UniProt P04585); test: Activity on wild type reverse transcriptase (Table 1 IC50 WT); assay type: biochemical
T1 construct: wild-type and four mutant HIV reverse transcriptases
Procedure: Using similar methods as described above, 2-[5-bromo-4-(4-cyclopropylnaphthalen-1-yl)-4H-[1,2,4]triazol-3-ylsulfanyl]-N-(2-methyl-4-sulfamoylphenyeacetamide and 2-[5-bromo-4-(4-ethylnaphthalen-1-yl)-4H-[1,2,4]triazol-3-ylsulfanyl]-N-(2-chloro-4-sulfamoylphenyl)-acetamide were synthesized, as were the N-4-carbamyl analog, 2-[5-bromo-4-(4-ethyl-naphthalen-1-yl)-4H-[1,2,4]triazol-3-ylsulfanyl]-N-(2-chloro-4-carbamoylphenyl)-acetamide and the N-4-carboxyl analog. Each of the compounds was tested against a panel of mutant HIV reverse transcriptases, including 20 of the 22 of the mutants that are found in about 2% or more of the patient samples that are resistant to the most widely used non-nucleoside HIV-RT inhibitor efavirenz ((4S)-6-chloro-4-(cyclopropylethynyl)-1,4-dihydro-4-(trifluoromethyl)-2H-3,1-benzoxazin-2-one). […] In most cases both criteria were met. […] […].
Compounds of the invention were tested against the wild-type and four mutant HIV reverse transcriptases. The results are listed in Table 1 as EC50 (nM) and IC50 (nM). In the Table, A represents <50 nM, B is between 50 and 100 nM, and C is >100 nM. ND is not determined.

[3] = target: mutant HIV reverse transcriptases (Human immunodeficiency virus type 1, UniProt P12497, Y775L, cells depend on it); assay type: cell-based
[4] = target: mutant HIV reverse transcriptases (Human immunodeficiency virus type 1, UniProt P12497, Y768C, cells depend on it); assay type: cell-based
[5] = Human immunodeficiency virus 1, Hela-JC53, read-out: EC50 WT
[6] = read-out: EC50 WT, wild-type (WT) HIV-1
[7] = read-out: IC50 WT RT, wild-type (WT) RT

| SMILES | EC50 [1, 5] | IC50 [2] | EC50 [3] | EC50 [4] | EC50 [1, 6] | IC50 [2, 7] |
| --- | --- | --- | --- | --- | --- | --- |
| Cc1cc(C2CC2)c2ccccc2c1-n1c(Br)nnc1SCC(=O)Nc1ccc(S(N)(=O)=O)cc1Cl [compound 50] | < 50 nM | < 50 nM | < 50 nM | < 50 nM |  |  |
| Cc1cc(C(=O)O)ccc1NC(=O)CSc1nnc(C(F)F)n1-c1ccc(C)c2c1CCCC2 [compound 5] | < 50 nM | < 50 nM | > 100 nM | > 100 nM |  |  |
| CNS(=O)(=O)c1ccc(NC(=O)CSc2nnc(C(F)F)n2-c2ccc(C)c3ccccc23)c(Cl)c1 [compound 54] | < 50 nM | < 50 nM | 50 to 100 nM | < 50 nM |  |  |
| O=C(CSc1nnc(Br)n1-c1ccc(C2CCC2)c2ccccc12)Nc1ccc(C(=O)O)cc1Cl [compound 26] | < 50 nM | < 50 nM | < 50 nM | < 50 nM |  |  |
| Cc1ccc(-n2c(SCC(=O)Nc3ccc(S(=O)(=O)NC(C)C(=O)O)cc3Cl)nnc2C(F)F)c2c1CCCC2 (centres unmarked) [compound 59] | > 100 nM | < 50 nM | > 100 nM | > 100 nM |  |  |
| O=C(CSc1nnc(Br)n1-c1ccc(C2CC2)c2ccccc12)Nc1ccc(C(=O)O)cc1Cl [compound 12] |  |  | < 50 nM | < 50 nM | < 50 nM | < 50 nM |
| NS(=O)(=O)c1ccc(NC(=O)CSc2nnc(C(F)F)n2-c2ccc(C3CCC3)c3ccccc23)c(Cl)c1 [compound 69] | < 50 nM | < 50 nM | < 50 nM | < 50 nM |  |  |
| COC(=O)[C@@H](NC(=O)c1ccc(NC(=O)CSc2nnc(Br)n2-c2ccc(C3CC3)c3ccccc23)c(Cl)c1)C(C)C [compound 103] | < 50 nM | < 50 nM | 50 to 100 nM | < 50 nM |  |  |
| O=C(O)CCNC(=O)c1ccc(NC(=O)CSc2nnc(Br)n2-c2ccc(C3CC3)c3ccccc23)c(Cl)c1 [compound 112] | < 50 nM | < 50 nM | > 100 nM | > 100 nM |  |  |
| CCc1ccc(-n2c(Br)nnc2SCC(=O)Nc2ccc(C(=O)NCCOC)cc2Cl)c2ccccc12 [compound 127] | < 50 nM | < 50 nM | < 50 nM | < 50 nM |  |  |
| Cc1cc(S(N)(=O)=O)ccc1NC(=O)CSc1nnc(Br)n1-c1ccc2c3c(cccc13)CC2 [compound 38] | < 50 nM | < 50 nM | < 50 nM | < 50 nM |  |  |
| CCc1ccc(-n2c(Br)nnc2SCC(=O)Nc2ccc(C(=O)O)cc2C)c2ccccc12 [compound 6] | < 50 nM | < 50 nM | > 100 nM | < 50 nM |  |  |
| Cc1cc(S(N)(=O)=O)ccc1NC(=O)C(C)Sc1nnc(Br)n1-c1c(C)ccc2ccccc12 (centres unmarked) [compound 142] | < 50 nM | < 50 nM | > 100 nM | < 50 nM |  |  |
| CC(C)c1ccc(-n2c(SCC(=O)Nc3ccc(S(N)(=O)=O)cc3Cl)nnc2C(F)F)c2ccccc12 [compound 71] | < 50 nM | < 50 nM | < 50 nM | < 50 nM |  |  |
| CCc1ccc(-n2c(C)nnc2SCC(=O)Nc2ccc(S(N)(=O)=O)cc2C)c2c1CCCC2 [compound 41] | < 50 nM | < 50 nM | > 100 nM | < 50 nM |  |  |
| CCc1ccc(-n2c(Br)nnc2SCC(=O)Nc2ccc(C(=O)N[C@H](C(=O)OC)C(C)C)cc2Cl)c2ccccc12 [compound 102] | < 50 nM | 50 to 100 nM | < 50 nM | < 50 nM |  |  |
| COC(=O)[C@H](CC(C)C)NC(=O)c1ccc(NC(=O)CSc2nnc(Br)n2-c2ccc(C3CC3)c3ccccc23)c(Cl)c1 [compound 115] | < 50 nM | < 50 nM | 50 to 100 nM | < 50 nM |  |  |
| NS(=O)(=O)c1ccc(NC(=O)CSc2nnc(Br)n2-c2ccc(F)c3ccccc23)c(Cl)c1 [compound 61] | < 50 nM | < 50 nM | < 50 nM | < 50 nM |  |  |
| CC(C)[C@H](NC(=O)c1ccc(NC(=O)CSc2nnc(Br)n2-c2ccc(C3CC3)c3ccccc23)c(Cl)c1)C(=O)O [compound 106] | < 50 nM | 50 to 100 nM | 50 to 100 nM | > 100 nM |  |  |
| Cc1ccc2c(C)cc(C)c(-n3c(SCC(=O)Nc4ccc(S(N)(=O)=O)cc4C)nnc3C(F)F)c2n1 [compound 64] | < 50 nM | < 50 nM | < 50 nM | < 50 nM |  |  |
| CC(C)C[C@H](NC(=O)c1ccc(NC(=O)CSc2nnc(Br)n2-c2ccc(C3CC3)c3ccccc23)c(Cl)c1)C(=O)O [compound 117] | < 50 nM | < 50 nM | > 100 nM | 50 to 100 nM |  |  |

| SMILES | EC50 [1, 5] | IC50 [2] | EC50 [3] | EC50 [4] | EC50 [1, 6] | IC50 [2, 7] |
| --- | --- | --- | --- | --- | --- | --- |
| CCc1ccc(-n2c(Br)nnc2SCC(=O)Nc2ccc(C(=O)NCCC#N)cc2Cl)c2ccccc12 [compound 130] | < 50 nM | < 50 nM | < 50 nM | < 50 nM |  |  |
| Cc1cc(S(N)(=O)=O)ccc1NC(=O)CSc1nnc(CF)n1-c1ccc(C)c2c1CCCC2 [compound 65] | < 50 nM | < 50 nM | 50 to 100 nM | < 50 nM |  |  |
| CCc1ccc(-n2c(Br)nnc2SCC(=O)Nc2ccc(C(=O)O)cc2Cl)c2ccccc12 [compound 8] | < 50 nM | < 50 nM | < 50 nM | < 50 nM |  |  |
| NS(=O)(=O)c1ccc(NC(=O)CSc2nnc(C(F)F)n2-c2ccc(C3CCCC3)c3ccccc23)c(Cl)c1 [compound 99] |  |  | > 100 nM | < 50 nM | < 50 nM | < 50 nM |
| Cc1cc(C2CC2)c2ccccc2c1-n1c(Br)nnc1SCC(=O)Nc1ccc(C(=O)O)cc1Cl [compound 23] | < 50 nM | < 50 nM | < 50 nM | < 50 nM |  |  |
| CCc1ccc(-n2c(Br)nnc2SCC(=O)Nc2ccc(C(=O)NCCO)cc2Cl)c2ccccc12 [compound 132] | < 50 nM | < 50 nM | < 50 nM | < 50 nM |  |  |
| CCOC(=O)CN(C)C(=O)c1ccc(NC(=O)CSc2nnc(Br)n2-c2ccc(C3CC3)c3ccccc23)c(Cl)c1 [compound 109] | < 50 nM | 50 to 100 nM | < 50 nM | < 50 nM |  |  |
| Cc1cc(C2CC2)c2ccccc2c1-n1c(Br)nnc1SCC(=O)Nc1ccc(S(=O)(=O)O)cc1Cl [compound 15] | < 50 nM | < 50 nM | > 100 nM | 50 to 100 nM |  |  |
| CCc1ccc(-n2c(CF)nnc2SCC(=O)Nc2ccc(S(N)(=O)=O)cc2C)c2ccccc12 [compound 49] | < 50 nM | < 50 nM | > 100 nM | < 50 nM |  |  |
| CCOC(=O)N1CCC(NC(=O)c2ccc(NC(=O)CSc3nnc(Br)n3-c3ccc(CC)c4ccccc34)c(Cl)c2)CC1 [compound 126] | < 50 nM | < 50 nM | < 50 nM | < 50 nM |  |  |
| COc1ccc2c(C3CC3)ccc(-n3c(Br)nnc3SCC(=O)Nc3ccc(S(N)(=O)=O)cc3Cl)c2c1 [compound 72] | < 50 nM | < 50 nM | < 50 nM | < 50 nM |  |  |
| CCOC(=O)C(C)NS(=O)(=O)c1ccc(NC(=O)CSc2nnc(C(F)F)n2-c2ccc(C)c3c2CCCC3)c(Cl)c1 (centres unmarked) [compound 56] | < 50 nM | < 50 nM | > 100 nM | < 50 nM |  |  |
| COc1ccc2c(C3CC3)ccc(-n3c(Br)nnc3SCC(=O)Nc3ccc(S(=O)(=O)O)cc3Cl)c2c1 [compound 113] | 50 to 100 nM | < 50 nM | > 100 nM | 50 to 100 nM |  |  |
| Cc1ccc(-n2c(SCC(=O)Nc3ccc(S(=O)(=O)NCCN4CCOCC4)cc3Cl)nnc2C(F)F)c2c1CCCC2 [compound 57] | < 50 nM | < 50 nM | 50 to 100 nM | < 50 nM |  |  |
| CCc1ccc(-n2c(Br)nnc2SCC(=O)Nc2ccc(C(=O)NCC(OC)OC)cc2Cl)c2ccccc12 [compound 118] | < 50 nM | < 50 nM | < 50 nM | < 50 nM |  |  |
| CCc1ccc(-n2c(Br)nnc2SCC(=O)Nc2ccc(S(N)(=O)=O)cc2Br)c2ccccc12 [compound 73] | < 50 nM | < 50 nM | < 50 nM | < 50 nM |  |  |
| O=C(CSc1nnc(Br)n1-c1ccc(C2CC2)cc1Cl)Nc1ccc(C(=O)O)cc1Cl [compound 31] | < 50 nM | < 50 nM | > 100 nM | < 50 nM |  |  |
| Cc1cc(S(N)(=O)=O)ccc1NC(=O)CSc1nnc(Br)n1-c1ccc(F)c2ccccc12 [compound 62] | < 50 nM | < 50 nM | > 100 nM | < 50 nM |  |  |
| Cc1cc(C2CC2)cc(C)c1-n1c(Br)nnc1SCC(=O)Nc1ccc(C(=O)O)cc1Cl [compound 33] | < 50 nM | < 50 nM | > 100 nM | < 50 nM |  |  |
| COc1cccc2c(-n3c(Br)nnc3SCC(=O)Nc3ccc(C(=O)O)cc3Cl)cccc12 [compound 27] | < 50 nM | < 50 nM | > 100 nM | < 50 nM |  |  |
